Data: publication PMC10255569, “Discovery of Peptidic Ligands against the SARS-CoV-2 Spike Protein and Their Use in the Development of a Highly Sensitive Personal Use Colorimetric COVID-19 Biosensor” (ACS Sensors, 2023)
Non-standard residues stand in square brackets, D forms with d. Residues, ends and D or L forms follow the SMILES beside them. *: point of attachment. Biotin = O=C1N[C@H]2[C@H](CS[C@H]2CCCCC(=O)*)N1; Phe(3,5-F2) = N[C@@H](Cc1cc(F)cc(F)c1)C(=O)O; hCit = NC(=O)NCCCC[C@H](N)C(=O)O; Aad = N[C@@H](CCCC(=O)O)C(=O)O; dPhg = N[C@@H](C(=O)O)c1ccccc1; Nva = CCC[C@H](N)C(=O)O; AEEA = NCCOCCOCC(=O)O; Ac3c = NC1(C(=O)O)CC1

Molecular target: SARS-CoV-2 spike protein active trimer
Type: binding

| Compound | Kd [µM] | binding affinity, times higher than CoV6-2 [times] | binding affinity, times stronger than the 13-mer reference peptide [times] | binding to the S-protein active trimer (in words) |
| --- | --- | --- | --- | --- |
| CCC[C@H](NC(=O)[C@H](CCCCNC(N)=O)NC(=O)[C@H](CCCNC(=N)N)NC(=O)[C@H](Cc1ccc(OC)cc1)NC(=O)[C@H](N)Cc1c[nH]cn1)C(=O)N[C@@H](CCCNC(=N)N)C(=O)N[C@@H](Cc1cc(F)cc(F)c1)C(=O)N[C@@H](Cc1ccccc1)C(=O)N[C@@H](CCCC(=O)O)C(=O)NCCOCCOCC(=O)NCCOCCOCC(=O)N[C@@H](CCCCNC(=O)CCCC[C@@H]1SC[C@@H]2NC(=O)N[C@@H]21)C(N)=O [L10-2] (H-[dH]Y(Me)R[hCit][Nva]R[Phe(3,5-F2)]F[Aad][AEEA][AEEA]K(Biotin)-NH2) | 0.025 | 8 | ~3 | bind reasonably well |
| COc1ccc(C[C@H](NC(=O)[C@H](N)Cc2c[nH]cn2)C(=O)N[C@@H](CCCNC(=N)N)C(=O)N[C@@H](C(=O)N[C@H](CCC(=O)O)C(=O)N[C@H](Cc2c[nH]cn2)C(=O)N[C@H](CCSC)C(=O)N[C@@H](CC(C)C)C(=O)NCCOCCOCC(=O)NCCOCCOCC(=O)N[C@@H](CCCCNC(=O)CCCC[C@@H]2SC[C@@H]3NC(=O)N[C@@H]32)C(N)=O)c2ccccc2)cc1 [L9-1] (H-[dH]Y(Me)R[dPhg][dE][dH][dM]L[AEEA][AEEA]K(Biotin)-NH2) |  |  |  | bind reasonably well |
| CC(C)C[C@H](NC(=O)CNC(=O)[C@H](Cc1ccccc1)NC(=O)[C@@H](NC(=O)[C@@H](N)[C@@H](C)O)C(C)C)C(=O)N[C@@H](CC(N)=O)C(=O)N[C@H](C(=O)N[C@@H](Cc1c[nH]c2ccccc12)C(=O)N[C@@H](CCCCN)C(=O)N[C@@H](CCCNC(=N)N)C(=O)N[C@@H](Cc1ccc(O)cc1)C(=O)N[C@@H](CO)C(=O)N[C@@H](CCCCN)C(=O)NCCOCCOCC(=O)NCCOCCOCC(=O)N[C@@H](CCCCNC(=O)CCCC[C@@H]1SC[C@@H]2NC(=O)N[C@@H]21)C(N)=O)C(C)C [Reference Peptide, reference compound] (H-TVFGLNVWKRYSK[AEEA][AEEA]K(Biotin)-NH2) | 0.079 |  |  |  |
| CCC[C@H](NC(=O)[C@H](CCCCNC(N)=O)NC(=O)[C@H](Cc1ccc(OC)cc1)NC(=O)[C@H](N)Cc1c[nH]cn1)C(=O)N[C@@H](CCCNC(=N)N)C(=O)N[C@@H](Cc1cc(F)cc(F)c1)C(=O)N[C@@H](Cc1ccccc1)C(=O)N[C@@H](CCCC(=O)O)C(=O)NCCOCCOCC(=O)NCCOCCOCC(=O)N[C@@H](CCCCNC(=O)CCCC[C@@H]1SC[C@@H]2NC(=O)N[C@@H]21)C(N)=O [L10-4] (H-[dH]Y(Me)[hCit][Nva]R[Phe(3,5-F2)]F[Aad][AEEA][AEEA]K(Biotin)-NH2) |  |  |  | bind reasonably well |
| CCC[C@H](NC(=O)[C@H](CCC(N)=O)NC(=O)[C@@H](N)Cc1cc(F)cc(F)c1)C(=O)N[C@@H](CCCNC(=N)N)C(=O)N[C@H](CC(N)=O)C(=O)N[C@@H](CCC)C(=O)N[C@H](CC(N)=O)C(=O)NC1(C(=O)NCCOCCOCC(=O)NCCOCCOCC(=O)N[C@@H](CCCCNC(=O)CCCC[C@@H]2SC[C@@H]3NC(=O)N[C@@H]32)C(N)=O)CC1 [L10-3] (H-[Phe(3,5-F2)]Q[Nva]R[dN][Nva][dN][Ac3c][AEEA][AEEA]K(Biotin)-NH2) |  |  |  | bind reasonably well |
